According to patent US5409817A, “Use of trans-sialidase and sialyltransferase for synthesis of sialylα2→3βgalactosides” (priority 1993, dated 1995):
Read-outs that look alike come from different tables or passages of the source.

Columns and labels:
T. crusi trans-sialidase = T. crusi trans-sialidase (Trypanosoma cruzi, UniProt P23253); test: Suitability as acceptor for the trans-sialidase; format: biochemical
Excerpt: The third principal enzyme used here is the trans-sialidase of Trypanosoma crusi (T. crusi) whose isolation and reactivity was reported in Vendekerckhove et al., Glycobiology, 6:541 (1992). This enzyme is often referred to as the trans-sialidase, and has a broad specificity for transferring sialic acid from a wide variety of NeuAcα2→3βGal-containing donor oligosaccharides to the non-reducing terminus (end) of a narrower range oligosaccharide acceptors whose nonreducing terminal saccharide is a β-linked Gal. A sialic acid is not transferred from an α(2,6)-linked Gal.
Thus, using the α(2,3)sialyltransferase acceptors of Scheme 2 (Compounds 2a and 2b) as exemplary and keeping in mind the before-discussed structural preferences and requirements of the T. crusi trans-sialidase for an acceptor substrate, it is seen that Compound 2a that has a non-reducing terminal Galβ1→3GlcNAc linkage, whereas Compound 2b contains a Galβ1→3GalNAc linkage, neither of which is preferred for an acceptor for the trans-sialidase, and both are present in a catalytic amount.

[1] = molecular target: T1, α-(2,3)Sialyltransferase EC 2.4.99.4 (Sus scrofa, UniProt Q02745); settings: acceptor for EC 2.4.99.4, cited from earlier work
T1 sequence (Q02745 1-343): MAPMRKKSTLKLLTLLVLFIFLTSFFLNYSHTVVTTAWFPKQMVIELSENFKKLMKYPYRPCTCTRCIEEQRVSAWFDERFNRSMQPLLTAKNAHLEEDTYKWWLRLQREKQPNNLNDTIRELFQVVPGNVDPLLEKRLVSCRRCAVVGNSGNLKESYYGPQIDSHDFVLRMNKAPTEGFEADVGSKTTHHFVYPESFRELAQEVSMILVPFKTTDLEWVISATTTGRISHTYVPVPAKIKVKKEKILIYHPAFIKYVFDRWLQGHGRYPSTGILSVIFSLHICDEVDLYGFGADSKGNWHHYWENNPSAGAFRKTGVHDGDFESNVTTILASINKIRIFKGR

[2] = molecular target: T2, α-(2,3)Sialyltransferase EC 2.4.99.6 (Rattus norvegicus, UniProt Q02734); settings: acceptor for EC 2.4.99.6, cited from earlier work
T2 sequence (Q02734 1-374): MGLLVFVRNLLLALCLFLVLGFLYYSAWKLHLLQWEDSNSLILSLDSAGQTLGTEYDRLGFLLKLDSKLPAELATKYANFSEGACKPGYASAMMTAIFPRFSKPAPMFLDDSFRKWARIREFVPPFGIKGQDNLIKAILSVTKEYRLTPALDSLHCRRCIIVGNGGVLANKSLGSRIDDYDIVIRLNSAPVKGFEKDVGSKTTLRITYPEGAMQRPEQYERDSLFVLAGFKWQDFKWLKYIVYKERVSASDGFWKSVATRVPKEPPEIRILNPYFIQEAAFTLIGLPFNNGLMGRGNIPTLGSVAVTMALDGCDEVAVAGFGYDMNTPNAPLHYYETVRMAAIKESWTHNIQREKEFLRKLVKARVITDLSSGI

α(2,3)sialyltransferases = test: Suitability as substrate of α(2,3)sialyltransferases; format: biochemical; settings: all known α(2,3)sialyltransferases
Excerpt: First, the corresponding galactoside Compound 3 [Jansson et al., J. Org. […] Second, after protection of hydroxy and carboxylate groups and selective cleavage of 2-(trimethylsilyl)ethyl glycoside, the sialoside Compound 4 is readily converted to a disaccharide glycosyl donor that can be used in the block chemical synthesis of ganglioside GM4 and more complex sialosides [(a) Suguimoto et al., Tetrahedron Lett., 31:385 (1990); (b) Kameyama et al., Carbohydr. Res., 209 (1991)] as reported by others.

[3] = value approximated from the data in Rearick et al.

Chain of T. crusi trans-sialidase (P23253 whole entry): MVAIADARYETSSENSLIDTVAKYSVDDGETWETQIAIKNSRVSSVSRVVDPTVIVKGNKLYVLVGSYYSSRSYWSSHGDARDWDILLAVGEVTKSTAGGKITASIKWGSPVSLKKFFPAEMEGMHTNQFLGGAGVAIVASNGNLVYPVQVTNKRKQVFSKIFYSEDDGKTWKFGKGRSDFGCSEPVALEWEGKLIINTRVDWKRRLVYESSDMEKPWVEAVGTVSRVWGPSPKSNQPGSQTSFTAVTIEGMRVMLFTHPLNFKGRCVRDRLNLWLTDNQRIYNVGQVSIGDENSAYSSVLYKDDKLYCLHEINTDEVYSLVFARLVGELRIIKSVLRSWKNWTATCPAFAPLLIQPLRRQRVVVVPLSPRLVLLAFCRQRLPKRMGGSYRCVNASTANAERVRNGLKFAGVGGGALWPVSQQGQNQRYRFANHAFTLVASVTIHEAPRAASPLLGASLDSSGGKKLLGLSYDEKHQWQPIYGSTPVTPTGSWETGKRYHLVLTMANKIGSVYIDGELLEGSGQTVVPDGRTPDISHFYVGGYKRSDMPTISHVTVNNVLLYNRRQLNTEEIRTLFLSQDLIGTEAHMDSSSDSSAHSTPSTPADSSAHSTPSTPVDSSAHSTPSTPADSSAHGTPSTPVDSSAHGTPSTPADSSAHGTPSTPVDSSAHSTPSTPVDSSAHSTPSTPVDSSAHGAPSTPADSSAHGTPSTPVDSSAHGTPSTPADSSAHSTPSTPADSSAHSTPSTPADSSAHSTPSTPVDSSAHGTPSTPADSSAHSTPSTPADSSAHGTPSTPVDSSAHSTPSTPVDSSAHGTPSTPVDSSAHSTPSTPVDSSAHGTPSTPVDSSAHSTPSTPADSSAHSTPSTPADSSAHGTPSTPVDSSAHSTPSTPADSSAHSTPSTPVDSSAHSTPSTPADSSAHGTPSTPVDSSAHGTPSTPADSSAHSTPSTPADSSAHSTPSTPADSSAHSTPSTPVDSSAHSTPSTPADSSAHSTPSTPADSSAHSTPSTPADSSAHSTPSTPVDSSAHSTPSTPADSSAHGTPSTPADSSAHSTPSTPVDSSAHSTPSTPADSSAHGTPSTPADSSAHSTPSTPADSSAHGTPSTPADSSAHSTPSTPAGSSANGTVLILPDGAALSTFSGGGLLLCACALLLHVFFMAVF

Structure (SMILES) | Km /Vmax [1] [mM-units mg] | Km [2] [µM] | Km /Vmax [2] [mM-units mg] | also measured
CC(=O)N[C@H]1[C@H](OCC[Si](C)(C)C)O[C@H](CO)[C@H](O)[C@@H]1O[C@@H]1O[C@H](CO)[C@H](O)[C@H](O)[C@H]1O [Compound 2b] | – | – | – | acceptor quality for the trans-sialidase (T. crusi trans-sialidase): relatively poor acceptors
CC(=O)N[C@H]1[C@H](O[C@H]2[C@@H](O)[C@@H](CO)O[C@@H](O[C@H]3[C@H](O)[C@@H](O)C(O)O[C@@H]3CO)[C@@H]2O)O[C@H](CO)[C@@H](O)[C@@H]1O[C@@H]1O[C@H](CO)[C@H](O)[C@H](O)[C@H]1O (some centres unmarked) [Compound 2a] | – | – | – | acceptor quality for the trans-sialidase (T. crusi trans-sialidase): relatively poor acceptors
CC(=O)N[C@H]1C(O)O[C@H](CO)[C@@H](O[C@@H]2O[C@H](CO)[C@H](O)[C@H](O)[C@H]2O)[C@@H]1O (some centres unmarked) [Galβ1→4GlcNAc] | 382 | 2700 | 3.6 | –
CC(=O)N[C@H]1C(O)O[C@H](CO[C@@H]2O[C@H](CO)[C@H](O)[C@H](O)[C@H]2O)[C@@H](O)[C@@H]1O (some centres unmarked) [Galβ1→6GlcNAc] | 121 | – | – | –
OC[C@H]1O[C@@H](O[C@H]2[C@H](O)[C@@H](O)C(O)O[C@@H]2CO)[C@H](O)[C@@H](O)[C@H]1O (some centres unmarked) [Galβ1→4Glc] | 290 | – | 10 | –
CC(=O)N[C@H]1C(O)O[C@H](CO)[C@@H](O)[C@@H]1O[C@@H]1O[C@H](CO)[C@H](O)[C@H](O)[C@H]1O (some centres unmarked) [Galβ1→3GlcNAc] | 15 | 640 | 0.55 | –
CC(=O)N[C@H]1[C@H](O[C@H]2[C@@H](O)[C@@H](CO)O[C@@H](O[C@H]3[C@H](O)[C@@H](O)C(O)O[C@@H]3CO)[C@@H]2O)O[C@H](CO)[C@@H](O[C@@H]2O[C@H](CO)[C@H](O)[C@H](O)[C@H]2O)[C@@H]1O (some centres unmarked) [lacto-N-neo-tetraose, Galβ1→4GlcNAcβ1→3Galβ1→4Glc] | – | 4220 | 4.3 | Km /Vmax [1, 3]: > 100 mM-units mg; Vmax [2]: 0.98 units/mg
C[Si](C)(C)CCO[C@@H]1O[C@H](CO)[C@H](O)[C@H](O)[C@H]1O [Compound 3] | – | – | – | substrate quality for α(2,3)sialyltransferases (α(2,3)sialyltransferases): poor substrate
CC(=O)N[C@H]1[C@H](O[C@H]2[C@@H](O)[C@@H](CO)O[C@@H](O[C@H]3[C@H](O)[C@@H](O)C(O)O[C@@H]3CO)[C@@H]2O)O[C@H](CO)[C@@H](O)[C@@H]1O[C@@H]1O[C@H](CO)[C@H](O)[C@H](O)[C@H]1O (some centres unmarked) [lacto-N-tetraose, Galβ1→3GlcNAcβ1→3Galβ1→4Glc] | 7.5 | 90 | 0.09 | Km [1]: 27000 µM
CO[C@@H]1O[C@H](CO)[C@H](O)[C@H](O)[C@H]1O [Galβ1→OCH3] | – | – | – | Km /Vmax [1, 3]: > 100 mM-units mg
CC(=O)N[C@H]1C(O)O[C@H](CO)[C@H](O)[C@@H]1O[C@@H]1O[C@H](CO)[C@H](O)[C@H](O)[C@H]1O (some centres unmarked) [Galβ1→3GalNAc] | 0.024 | – | – | Km /Vmax ([2]; value approximated from the data in Weinstein et al.): > 10 mM-units mg
